Several values for one entry are separate records, joined by “and”; a condition that tells them apart may be missing. Identical values can stand only once.
Test system: 171881-019-R-J1-PDC complex spheroid growth, % test/control
Assay: Anticancer human tumor 171881-019-R-J1-PDC patient-derived invasive breast carcinoma cell line growth inhibition [Asc]
Conditions: for viability, T/C: stronger effect = lower value; active = viability on the fitted dose curve at most 10% of control; inactive = the rest
Summary of the method: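 Complex solid-tumor spheroids incorporating human endothelial and mesenchymal stem cells received single agents or combinations over half-log dilution ranges anchored to clinical Cmax.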
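Throughout, for viability, T/C: spheroids exposed to compounds for 7 days.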

O=C(c1cc(Cc2n[nH]c(=O)c3ccccc23)ccc1F)N1CCN(C(=O)C2CC2)CC1 + CNC(C)C(=O)NC1CN(S(=O)(=O)c2cccc(S(=O)(=O)N3CCC4CCC(C(=O)NC(c5ccccc5)c5ccccc5)N4C(=O)C(NC(=O)C(C)NC)C3)c2)CCC2CCC(C(=O)NC(c3ccccc3)c3ccccc3)N2C1=O
> 10000 nM: IC50 (curve of first compound, second compound 0.01 µM) | IC50 (curve of first compound, second compound 0.0316 µM) | IC50 (curve of first compound, second compound 0.1 µM) | IC50 (curve of first compound, second compound 0.316 µM) | IC50 (curve of first compound, second compound 1 µM)
inactive: viability, T/C (second compound 0.01 µM, first compound 0.0316 µM) 101% | viability, T/C (second compound 0.01 µM, first compound 0.1 µM) 107% | viability, T/C (second compound 0.01 µM, first compound 0.316 µM) 109% | viability, T/C (second compound 0.01 µM, first compound 1 µM) 118% | viability, T/C (second compound 0.01 µM, first compound 3.16 µM) 104% | viability, T/C (second compound 0.01 µM, first compound 10 µM) 128% | viability, T/C (second compound 0.0316 µM, first compound 0.0316 µM) 100% | viability, T/C (second compound 0.0316 µM, first compound 0.1 µM) 105% | viability, T/C (second compound 0.0316 µM, first compound 0.316 µM) 93.3% | viability, T/C (second compound 0.0316 µM, first compound 1 µM) 128% | viability, T/C (second compound 0.0316 µM, first compound 3.16 µM) 107% | viability, T/C (second compound 0.0316 µM, first compound 10 µM) 106% | viability, T/C (second compound 0.1 µM, first compound 0.0316 µM) 108% | viability, T/C (second compound 0.1 µM, first compound 0.1 µM) 89.4% | viability, T/C (second compound 0.1 µM, first compound 0.316 µM) 106% | viability, T/C (second compound 0.1 µM, first compound 1 µM) 104% | viability, T/C (second compound 0.1 µM, first compound 3.16 µM) 105% | viability, T/C (second compound 0.1 µM, first compound 10 µM) 112% | viability, T/C (second compound 0.316 µM, first compound 0.0316 µM) 95% | viability, T/C (second compound 0.316 µM, first compound 0.1 µM) 96.2% | viability, T/C (second compound 0.316 µM, first compound 0.316 µM) 99.7% | viability, T/C (second compound 0.316 µM, first compound 1 µM) 119% | viability, T/C (second compound 0.316 µM, first compound 3.16 µM) 114% | viability, T/C (second compound 0.316 µM, first compound 10 µM) 122% | viability, T/C (second compound 1 µM, first compound 0.0316 µM) 116% | viability, T/C (second compound 1 µM, first compound 0.1 µM) 113% | viability, T/C (second compound 1 µM, first compound 0.316 µM) 89.4% | viability, T/C (second compound 1 µM, first compound 1 µM) 111% | viability, T/C (second compound 1 µM, first compound 3.16 µM) 103% | viability, T/C (second compound 1 µM, first compound 10 µM) 128%

COc1c(OCCCN2CCOCC2)ccc2c3n(c(=NC(=O)c4cnc(N)nc4)nc12)CCN3
17.4% and 14.1% and 19.9%: viability, T/C (compound 0.1 µM)
3.09% and 3.26% and 4.21%: viability, T/C (compound 0.316 µM)
33.9 nM and 30.9 nM and 24.8 nM: IC50 (curve of compound)
1.31% and 1.02% and 4.37%: viability, T/C (compound 1 µM)
inactive: viability, T/C (compound 0.00316 µM) 148% and 152% and 226% | viability, T/C (compound 0.01 µM) 115% and 134% and 153% | viability, T/C (compound 0.0316 µM) 50.5% and 46.9% and 61.2%
